In US20020111360A1, “Quinazoline formulations and therapeutic use thereof” (PARKER HUGHES INSTITUTE, priority 1999, published 2002):
Structures can show the parent of a compound that is named as a salt. Blank lines part the entries; values can stand above or below the compound they belong to.

Columns and labels:
[1] = Solubilization of WHI-P131 in water-cosolvent mixtures and micellar solutions; assay type: physicochemical; settings: for Solubility: aqueous with cosolvent or surfactant or cyclodextrin
Protocol: To further determine the effect of cosolvents on the solubility behavior of WHI-P131, the solubility of WHI-P131 chloride salt was carried out in binary mixtures of water-cosolvents. Solvents including ethanol, propylene glycol, and PEGs are used in several injectable formulations, and were considered here as possible vehicles for WHI-P131. […] However, at PEG concentrations greater than 70%, there was a large difference between the solubility behavior of WHI-P131 in water-PEG300 and water-PEG200 mixtures. For PEG300, the solubility continued to increase linearly with increasing PEG concentration, whereas for PEG200, a large increase in slopes occurred near 100% PEG200. Since the solubility-PEG300 concentration curve is linear over the entire range of water-PEG300 mixtures, WHI-P131 solubilized in these mixtures at concentrations below its saturation point can be used as vehicles for this compound, since their dilution will not result in drug precipitation. […] Therefore, PEG300 is more appropriate for use as a cosolvent vehicle in the formulations of WHI-P131.
Micellar solutions containing PEGylated phosphatidylethanolamines were exceptionally effective in enhancing the solubilization of WHI-P131. […] Micellar solutions using purified soya lecithin (Phospholipon 90G) were feasible when an equal or higher amount of a nonionic surfactant (such as Cremophor EL for example) was also present. With PEGylated phospholipids, the presence of Cremophor EL was not necessary to form micellar solutions. In addition, an anionic PEGylated phosphatidylethanolamine seemed to be a better solubilizer for WHI-P131 than Phospholipon (mostly phosphotidylcholine). The enhanced solubilization observed with micellar solutions was apparently due to the charge interaction between the cationic WHI-P131 and anionic PEGylated phosphatidylethanolamine.
To determine the solubilization enhancement by different types of surfactants in a more quantitative manner, solubility-surfactant concentration curves were plotted. FIG. 2 depicts the amount of solubilized WHI-P131 chloride in a solution containing 20% of PEG300, and an increasing amount of PEG2000-DPPE. […] At low surfactant concentrations (below the CMC), the drug solubilization seems to remain unchanged, then increases linearily with surfactant concentration at higher PEG2000-DPPE concentration. […] In Table 8, the slopes of the linear portions of the plot for a series of nonionic surfactants and cosolvents were used to calculate the solubilization enhancement per unit surfactant or cosolvent concentration.
The solubilization enhancement, as represented by the amount of solubilized WHI-P131 (in milligram) per gram of surfactant, are shown in Table 8 to vary with the type of surfactants used. For the three PEGylated phosphatidylethanolamines, the solubilization enhancement depended on the hydrophobic chain length and polyoxyethylene number of the PEGylated phospholipids. […] Also shown in Table 8 for comparison purposes are the solubilization enhancements produced by the use of cosolvents.

[2] = Solubilization of WHI-P131 in microemulsions; assay type: physicochemical; settings: microemulsion formulation vs free base in water
From the text: A series of ternary phase diagrams were constructed at room temperature, and several microemulsions within the single phase microemulsion region were examined for their capacity to solubilize WHI-P131. […] In this phase diagram, it can be seen that microemulsions containing up to 30% of Captex 300 were possible. These microemulsions were transparent and tolerated dilution very well when mixed with aqueous phases. In WHI-P131-containing microemulsions, the drug was first solubilized in the microemulsions chosen from the one phase region of the phase diagram with mild heating, followed by dilution with water or buffer solution at room temperature.
The microemulsion composition ME1 depicted in Table 9 was used in pharmacokinetic studies and biological activity assays. This microemulsion was prepared by first solubilizing WHI-P131 in composition A in the ternary phase diagram, followed by a dilution with water (1:9). […] ME2 was a microemulsion composition obtained from a separate phase diagram not shown. […] These microemulsions can readily be filtered through 0.2 μm filter, and stored at room temperature.

[3] = Solubility of WHI-P131 free base and chloride salt in various liquids; assay type: physicochemical
Protocol: The solubility of WHI-P131 free base was measured in water, propylene glycol, polyethylene glycols (PEGs), ethanol, and triglycerides. The solubility of WHI-P131 is very poor in water. It was about 35 times more soluble in C8-C10 medium chain triglyceride (Captex 300) than in water. It was much more soluble in ethanol and hydrophilic cosolvents such as propylene glycol and PEGs.
Parallel solubility measurements were also carried out using WHI-P131 chloride salt. […] In contrast, the solubility of WHI-P131 chloride decreased drastically in all other liquids. […] This fact underscores the importance of knowing the solubility profile of both the free base and salt forms of an ionizable compound when making choices of its delivery vehicles.

Solubility ([1]; 20% PEG300 plus 3% PEG2000-DPPE micellar solution, chloride salt, 20% PEG300 plus 3% PEG2000-DPPE, read-out: Drug solubilization in cosolvent/micellar vehicle): 4700 µg/mL
Solubilized WHI-P131 (mg) per gram of surfactant or solvent ([1]; PEG200, Cosolvent): 5.3 mg per gram
Solubilized WHI-P131 (mg) per gram of surfactant or solvent ([1]; PEG300, Cosolvent): 5.8 mg per gram
Solubilized WHI-P131 (mg) per gram of surfactant or solvent ([1]; PEG400, Cosolvent): 6.2 mg per gram
Solubilized WHI-P131 (mg) per gram of surfactant or solvent ([1]; PEG2000-PE (14:0), Micellar solution): 76.6 mg per gram
Solubilized WHI-P131 (mg) per gram of surfactant or solvent ([1]; PEG2000-PE (16:0), Micellar solution): 92.0 mg per gram
Solubilized WHI-P131 (mg) per gram of surfactant or solvent ([1]; PEG5000-PE (18:0), Micellar solution): 37.5 mg per gram
Solubilized WHI-P131 (mg) per gram of surfactant or solvent ([1]; Pluronic F-68, Micellar solution): 6.1 mg per gram
Solubility in 20% PEG300 ([1]; chloride salt, 20% PEG300, no surfactant): 2200 µg/mL
Total solubilization enhancement ([1]; cosolvent/micellar solution vs free base in water): 190 fold
Total solubilization enhancement [2]: 110 fold
Solubility in C8-C10 medium chain triglyceride (Captex 300) relative to water ([3]; Captex 300 vs water): about 35 times
Solubility ([3]; Water): very poor
Structure (SMILES): COc1cc2ncnc(Nc3ccc(O)cc3)c2cc1OC [WHI-P131, 4-(4′-Hydroxylphenyl)-amino-6,7-dimethoxyquinazoline]

Solubility ([3]; Captex 300): 0.88 ± 0.08 mg/mL
Solubility ([3]; Ethanol): 18.6 ± 0.5 mg/mL
Solubility ([3]; PEG200): >100 mg/mL
Solubility ([3]; PEG300): >185 mg/mL
Solubility ([3]; Propylene glycol): 19.5 ± 0.7 mg/mL
Solubility ([3]; Water): 0.025 mg/mL
Solubility ([3]; ethanol): 1.86%
Solubility ([3]; polyethylene glycols): greater than 10%
Solubility ([3]; propylene glycol): 1.95%
Structure (SMILES): COc1cc2ncnc(Nc3ccc(O)cc3)c2cc1OC [WHI-P131 Free base, 4-(4′-Hydroxylphenyl)-amino-6,7-dimethoxyquinazoline]

Solubility ([1]; 20% PEG300 in water, chloride salt, 20% PEG300, no surfactant, read-out: Solubility in 20% PEG300): 2380 µg/mL
Solubility ([3]; Captex 300): 0.012 ± 0.002 mg/mL
Solubility ([3]; Ethanol): 0.631 ± 0.007 mg/mL
Solubility ([3]; PEG200): 25.12 ± 0.72 mg/mL
Solubility ([3]; PEG300): 10.10 ± 3.60 mg/mL
Solubility ([3]; Propylene glycol): 1.61 ± 0.09 mg/mL
Solubility ([3]; Water): 1.24 ± 0.09 mg/mL
Solubility ([3]; Water, listed as WHI-P131 salt): 1.2 mg/mL
Structure (SMILES): COc1cc2ncnc(Nc3ccc(O)cc3)c2cc1OC [WHI-P131 Chloride salt, 4-(4′-Hydroxylphenyl)-amino-6,7-dimethoxyquinazoline]

melting point: 257 to 262 °C
Structure (SMILES): COc1cc2ncnc(Nc3ccc(Br)cc3Br)c2cc1OC [P-263, 4-(2′,4′-Dibromophenyl)-amino-6,7-dimethoxyquinazoline]

melting point: 235 to 237 °C
Structure (SMILES): COc1cc2ncnc(Nc3c(Br)cc(C)cc3Br)c2cc1OC [P-241, 4-(2′,6′-Dibromo-4′-methylphenyl)-amino-6,7-dimethoxyquinazoline]

melting point: > 300 °C
Structure (SMILES): COc1cc2ncnc(Nc3ccc(Br)cc3C(=O)O)c2cc1OC [P-88, 4-(4′-Bromo-2′-caboxylphenyl)-amino-6,7-dimethoxyquinazoline]

melting point: 180 to 182 °C
Structure (SMILES): COc1cc2ncnc(Nc3c(F)c(F)c(Br)c(F)c3F)c2cc1OC (as salt: salt) [P-144, 4-(2′,3′,5′,6′-Tetrafluoro-4′-bromolphenyl)-amino-6,7-dime-thoxyquinazoline]
